Data: ChEMBL document CHEMBL1201862, “PubChem BioAssay data set” (2004)
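A five-concentration, 48-hour dose response in 96-well plates underlies each endpoint, interpolated linearly between surrounding concentrations. Abbreviation: GI50, concentration required for 50% inhibition of growth.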 Active and inactive are the calls of the source. Rule as the data show it: active = GI50 up to about 1.1 µM and inactive = higher.

What was measured:
Experiment in all cases: DTP human tumour cell line panel, 48 h
[1] = test system: CCRF-CEM
[2] = test system: U-251
[3] = test system: MCF7
[4] = test system: SK-MEL-28
[5] = test system: SK-MEL-2
[6] = test system: DU-145
[7] = test system: A549
[8] = test system: HCT-15
[9] = test system: COLO 205
[10] = test system: SK-MEL-5
[11] = test system: TK-10
[12] = test system: HOP-62
[13] = test system: RPMI-8226
[14] = test system: RXF 393
[15] = test system: T47D
[16] = test system: IGROV-1
[17] = test system: SK-OV-3
[18] = test system: ACHN
[19] = test system: NCI-H460
[20] = test system: OVCAR-8

Compound	GI50 [1]	GI50 [2]	GI50 [3]	GI50 [4]	GI50 [5]	GI50 [6]	GI50 [7]	GI50 [8]	GI50 [9]	GI50 [10]	GI50 [11]	GI50 [12]	GI50 [13]	GI50 [14]	GI50 [15]	GI50 [16]	GI50 [17]	GI50 [18]	GI50 [19]	GI50 [20]
CN1CCc2[nH]nc(-c3n[nH]c4c3CN(C)CC4)c2C1	72.8 µM (inactive)	> 100 µM (inactive)	> 100 µM (inactive)	44.9 µM (inactive)	> 100 µM (inactive)	> 100 µM (inactive)	> 100 µM (inactive)	> 100 µM	> 100 µM (inactive)	> 100 µM (inactive)	> 100 µM (inactive)	> 100 µM (inactive)	> 100 µM (inactive)	> 100 µM (inactive)	> 100 µM (inactive)	> 100 µM (inactive)	> 100 µM (inactive)	> 100 µM (inactive)	> 100 µM (inactive)	> 100 µM (inactive)
CCCCc1c(OC)cc(O)c2c1C(=O)c1[nH]c(C(=O)O)c(O)c(=O)c1C2=O	42.1 µM (inactive)	2.95 µM (inactive)	21.1 µM (inactive)	4.11 µM (inactive)	1.69 µM (inactive)	63.1 µM (inactive)	77.1 µM (inactive)	23.8 µM	22 µM (inactive)		13.9 µM (inactive)	1.57 µM (inactive)	> 100 µM (inactive)	1.56 µM (inactive)	9.4 µM (inactive)	8.43 µM (inactive)	4.35 µM (inactive)	2.27 µM (inactive)	46.8 µM (inactive)	2.27 µM (inactive)
Nc1ccc(S(=O)(=O)c2ccc(/N=[N+](\[O-])c3ccc(S(=O)(=O)c4ccc(N)cc4)cc3)cc2)cc1	> 100 µM (inactive)	27.7 µM (inactive)	> 64.6 µM (inactive)	> 80.4 µM (inactive)	> 49.1 µM (inactive)	81.7 µM (inactive)	> 100 µM (inactive)	> 100 µM	> 100 µM (inactive)	44 µM (inactive)	> 44.1 µM (inactive)	20.4 µM (inactive)	> 100 µM (inactive)	7.66 µM (inactive)	> 48 µM (inactive)	> 92.9 µM (inactive)	24.9 µM (inactive)	> 60.5 µM (inactive)	66.5 µM (inactive)	41.2 µM (inactive)
Cc1cccc(NC(=S)Nc2ccc([N+](=O)[O-])cc2)n1	> 100 µM (inactive)	> 100 µM (inactive)	> 100 µM (inactive)	> 100 µM (inactive)	> 100 µM (inactive)	> 100 µM (inactive)		> 100 µM	> 100 µM (inactive)	> 100 µM (inactive)	> 100 µM (inactive)	> 100 µM (inactive)	> 100 µM (inactive)	> 100 µM (inactive)	> 100 µM (inactive)	> 100 µM (inactive)	> 100 µM (inactive)	> 100 µM (inactive)	> 100 µM (inactive)	> 100 µM (inactive)
COc1ccc(/C=C2/C(C)=NN(c3cccc(Cl)c3)/C2=N/c2nc3ccccc3s2)cc1	25.3 µM (inactive)	20.7 µM (inactive)	28.8 µM (inactive)	20.6 µM (inactive)	22.3 µM (inactive)	19.6 µM (inactive)		17.5 µM		16.6 µM (inactive)	29 µM (inactive)	20 µM (inactive)	22.7 µM (inactive)	12 µM (inactive)	34 µM (inactive)	20.7 µM (inactive)	24 µM (inactive)	20.6 µM (inactive)	20.4 µM (inactive)	22.6 µM (inactive)
NS(=O)(=O)c1nnc(NC(=O)Nc2ccc(Cl)c(Cl)c2)s1	14.3 µM (inactive)	29.4 µM (inactive)	26.9 µM (inactive)	17.1 µM (inactive)	25.4 µM (inactive)	29.4 µM (inactive)	31 µM (inactive)	21.2 µM	13.9 µM (inactive)	16.7 µM (inactive)	20.6 µM (inactive)	17.8 µM (inactive)	17.5 µM (inactive)	16.7 µM (inactive)	19.9 µM (inactive)		20.6 µM (inactive)	34.2 µM (inactive)	19.1 µM (inactive)	20.4 µM (inactive)
